Measurements as given in patent US20230140298A1, “TOPICAL COMPOSITION COMPRISING RETINOL AND PDRN AND USE OF SAME” (DR. J SKINCLINIC, INC., priority 2021, published 2023).

Key:
Format in all cases: cell-based, human
MCP-1 = experiment: Retinol-induced MCP-1 release in HaCaT cells (ELISA); conditions: 10 μM all-trans retinol, 48 hours
Procedure: (§1) Referring to FIG. 1, immortalized human keratinocytes HaCaT cells were cultured in 96-well plates and treated with 10 μM of all-trans retinol (Sigma-Aldrich, St. Louis, Mo.) and c-PDRN® obtained from (PharmaResearch, Seongnam-si, Gyeonggi-do, Korea) at the indicated concentrations. […] The levels of secreted cytokine were normalized against a standard dose-response curve. c-PDRN is a hydrolyzed DNA fragment mixture extracted from the testes of adult salmon (Oncorhynchus keta, Salmonidae) The inhibitory effects of c-PDRN were evaluated on retinol-induced secretion of MCP-1 or IL-8 in cultured human keratinocytes, HaCaT cells by enzyme-linked immunosorbent assay (ELISA) to study IL-8, MCP-1 signaling pathway. The cultured HaCaT cells were treated with 10 μM all-trans retinol prior to c-PDRN treatment at the indicated concentrations. After incubation for 48 hours, the levels of secreted IL-8 or MCP-1 were measured and normalized against a standard IL-8 or MCP-1 dose-response curve. Data were shown as the means of three individual experiments with five wells per group. All-trans retinol induced increases in IL-8 and MCP-1 secretion by 8-fold and 1.4-fold, respectively. Efficacy range was c-PDRN 10 ppm ˜100 ppm or 0.001%-0.01%.

IL-8 = experiment: Retinol-induced IL-8 release in HaCaT cells (ELISA); conditions: 10 μM all-trans retinol, 48 hours
Procedure: as §1

p38 = experiment: Expression and phosphorylation of p38 in HaCaT cells (Western blot); conditions: 10 μM all-trans retinol, 48 hours, FIG. 3
Procedure: Referring to FIG. 1, altered signaling pathways in the retinol-treated HaCaT cells were investigated. The HaCaT cells were harvested 48 hours after treatment of retinol and c-PDRN at the indicated concentrations, and expression and phosphorylation levels of inflammation-related signaling mediator, p38 were determined using Western blot. Antibodies against p38 or phosphorylated p38 (p-p38) were purchased from Cell Signaling Technology (Danvers, Mass.). The expression and phosphorylation levels of inflammation-related signaling mediator, p38 were evaluated after treatment with 10 μM all-trans retinol and c-PDRN at the indicated concentrations using Western blot to study p38 signaling pathway.

CC1=C(/C=C/C(C)=C/C=C/C(C)=C/CO)C(C)(C)CCC1 [All-trans retinol, all-trans retinol]
increase in MCP-1 secretion (MCP-1): 1.4 fold | increase in IL-8 secretion (IL-8): 8 fold | phosphorylation of p38 protein induced (p38): 1.6 fold
